Test results as given in publication PMC3034727 (PLoS ONE, 2011).
Values joined by “and” are separate entries in the source; they are usually repeats but may differ in a detail not shown here. Equal values may be shown once.

Tests used:
Hokkaido virus NA = Hokkaido virus NA (Influenza A virus, UniProt Q7TER1); type: biochemical, Influenza virus strain A/Hokkaido/15/02 H1N1
[1] = molecular target: Construct 2 (recombinant Hokkaido N1 NA, GCN4-pLI stalk) (Influenza A virus, UniProt Q7TER1); type: biochemical, Influenza virus strain A/Hokkaido/15/02 H1N1
[2] = molecular target: Construct 4 (recombinant Hokkaido N1 NA, Tetrabrachion stalk) (Influenza A virus, UniProt Q7TER1); type: biochemical, Influenza virus strain A/Hokkaido/15/02 H1N1
[3] = molecular target: Construct 4: FLAG-tagged recombinant Hokkaido N1 neuraminidase with an artificial Tetrabrachion stalk (Staphylothermus marinus | influenza A virus A/Hokkaido/15/02 (H1N1)); experiment: SEC

Sequence of Construct 2 (recombinant Hokkaido N1 NA, GCN4-pLI stalk) (Q7TER1 70-470): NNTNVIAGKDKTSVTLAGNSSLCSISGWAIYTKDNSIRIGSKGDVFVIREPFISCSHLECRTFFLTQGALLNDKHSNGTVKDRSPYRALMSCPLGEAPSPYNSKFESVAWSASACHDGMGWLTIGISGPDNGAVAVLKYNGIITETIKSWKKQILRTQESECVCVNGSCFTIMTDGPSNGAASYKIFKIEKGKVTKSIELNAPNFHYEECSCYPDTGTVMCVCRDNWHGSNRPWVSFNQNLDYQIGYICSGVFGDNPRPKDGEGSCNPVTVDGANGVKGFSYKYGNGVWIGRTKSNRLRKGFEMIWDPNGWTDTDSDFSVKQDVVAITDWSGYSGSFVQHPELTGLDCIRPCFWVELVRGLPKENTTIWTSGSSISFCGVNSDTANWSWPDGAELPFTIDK
Sequence of Construct 4 (recombinant Hokkaido N1 NA, Tetrabrachion stalk) (Q7TER1 70-470): as above
Sequence of Hokkaido virus NA (Q7TER1 entry or part of it, added parts left off): as the sequence (Q7TER1 70-470) above

Row | Molecule | K m value for MUNANA (Hokkaido virus NA) | K m value for MUNANA [1] | K m value for MUNANA [2] | stoichiometry N [3]
1 | CC(=O)N[C@H]1[C@H]([C@H](O)[C@H](O)CO)OC(Oc2ccc3c(C)cc(=O)oc3c2)(C(=O)O)C[C@@H]1O (stereo partly drawn) [MUNANA, 4-Methylumbelliferyl N-acetyl-a-D-Neuraminic acid] | 24.1 µM and 24.1 ± 1.1 µM | 54.4 µM and 54.1 µM and 54.1 ± 4.4 µM | 34.7 µM and 34.7 ± 1.9 µM | 
2 | Construct 4: FLAG-tagged recombinant Hokkaido N1 neuraminidase with an artificial Tetrabrachion stalk (enzyme) |  |  |  | 4
